Measurements taken from US5182273A, “Spirocyclic N, O derivatives of cyclotriphosphazenes and their use in therapy” (Pierre Fabre Medicament, priority 1990, dated 1993).

These compounds were tested on mouse L1210 leukemic cells (assay: In vitro cytotoxicity, inhibition of cell growth (cell counter)). Details: read-out: IC50 (concentration for which 50% inhibition of cell growth is obtained).
Format: cell-based
Protocol: The cytotoxic activity in vitro was evaluated by the determination of the IC50 (concentration for which 50% inhibition of cell growth is obtained) on mouse L1210 leukemic cells.
The IC50 is evaluated by means of a cell counter.

Structure (SMILES) | IC50 [µM]
c1ccc(CN2CCOP23=NP(N2CC2)(N2CC2)=NP(N2CC2)(N2CC2)=N3)cc1 (centres unmarked) [Compound 5, 4-Phenylmethyl-7,7,9,9-tetra-1-aziridinyl-7,7,9,9-tetrahydro-1-oxa-4,6,8,10-tetraaza-5λ^5,7,9-triphosphaspiro-[4,5]-deca-5,7,9-triene] | 5.8
c1ccc(CN2CCCOP23=NP(N2CC2)(N2CC2)=NP(N2CC2)(N2CC2)=N3)cc1 (centres unmarked) [Compound 6, 11-Phenylmethyl-2,2,4,4-tetra-1-aziridinyl-2,2,4,4-tetrahydro-7-oxa-1,3,5,11-tetraaza-2,4,6λ^5-triphosphaspiro-[5,5]-undeca-1,3,5-triene] | 5.8
c1ccc(CCN2CCOP23=NP(N2CC2)(N2CC2)=NP(N2CC2)(N2CC2)=N3)cc1 (centres unmarked) [Compound 7, 4-(2-Phenylethyl)-7,7,9,9-tetra-1-aziridinyl-7,7,9,9-tetrahydro-1-oxa-4,6,8,10-tetraaza-5λ^5,7,9-triphosphaspiro-[4,5]-deca-5,7,9-triene] | 7.8
C1COP2(=NP(N3CC3)(N3CC3)=NP(N3CC3)(N3CC3)=N2)N1 (centres unmarked) [Compound 2, 7,7,9,9-Tetra-1-aziridinyl-7,7,9,9-tetrahydro-1-oxa-4,6,8,10-tetraaza-5λ^5,7,9-triphosphaspiro-[4,5]-deca-5,7,9-triene] | 8.7
C1CCC(N2CCCOP23=NP(N2CC2)(N2CC2)=NP(N2CC2)(N2CC2)=N3)CC1 (centres unmarked) [Compound 4, 11-Cyclohexyl-2,2,4,4-tetra-1-aziridinyl-2,2,4,4-tetrahydro-7-oxa-1,3,5,11-tetraaza-2,4,6λ^5-triphosphaspiro-[5,5]-undeca-1,3,5-triene] | 9.9
c1ccc(CCN2CCCOP23=NP(N2CC2)(N2CC2)=NP(N2CC2)(N2CC2)=N3)cc1 (centres unmarked) [Compound 8, 11-(2-Phenylethyl)-2,2,4,4-tetra-1-aziridinyl-2,2,4,4-tetrahydro-7-oxa-1,3,5,11-tetraaza-2,4,6λ^5-triphosphaspiro-[5,5]-undeca-1,3,5-triene] | 6.5
C1CNP2(=NP(N3CC3)(N3CC3)=NP(N3CC3)(N3CC3)=N2)OC1 (centres unmarked) [Compound 3, 2,2,4,4-Tetra-1-aziridinyl-2,2,4,4-tetrahydro-7-oxa-1,3,5,11-tetraaza-2,4,6λ^5-triphosphaspiro-[5,5]-undeca-1,3,5-triene] | 2.3
CN1CCOP12=NP(N1CC1)(N1CC1)=NP(N1CC1)(N1CC1)=N2 (centres unmarked) [Compound 1, 4-methyl-7,7,9,9-tetra-1-aziridinyl-7,7,9,9-tetrahydro-1-oxa-4,6,8,10-tetraaza-5λ^5-7,9-triphosphaspiro-[4,5]-deca-5,7,9-triene] | 9
